Literature values, collected in article PMC6394493 (Cancer Chemotherapy and Pharmacology, 2018).

System: pS6
Set-up: method as in PMID 25673697
Conditions: patients with advanced solid tumors; cited from earlier work

CO[C@H]1C[C@@H]2CC[C@@H](C)[C@@](O)(O2)C(=O)C(=O)N2CCCC[C@H]2C(=O)O[C@H]([C@H](C)C[C@@H]2CC[C@@H](OCCO)[C@H](OC)C2)CC(=O)[C@H](C)/C=C(\C)[C@@H](O)[C@@H](OC)C(=O)[C@H](C)C[C@H](C)/C=C/C=C/C=C/1C [everolimus]
changes in pS6 in skin biopsies: induce changes in pS6
